Test results published in patent US20120214847A1, “2-[1-PHENYL-5-HYDROXY-4a-SUBSTITUTED-HEXAHYDROCYCLOPENTA[F]INDAZOL-5-YL]ETHYL PHENYL DERIVATIVES AS GLUCOCORTICOID RECEPTOR LIGANDS” (Merck Sharp & Dohme Corp., priority 2009, published 2012).

Biological target: T1, human GR (Homo sapiens, UniProt P04150)
T1 construct: naturally expresses the human GR; endogenous in cells
T1 sequence (P04150 1-777): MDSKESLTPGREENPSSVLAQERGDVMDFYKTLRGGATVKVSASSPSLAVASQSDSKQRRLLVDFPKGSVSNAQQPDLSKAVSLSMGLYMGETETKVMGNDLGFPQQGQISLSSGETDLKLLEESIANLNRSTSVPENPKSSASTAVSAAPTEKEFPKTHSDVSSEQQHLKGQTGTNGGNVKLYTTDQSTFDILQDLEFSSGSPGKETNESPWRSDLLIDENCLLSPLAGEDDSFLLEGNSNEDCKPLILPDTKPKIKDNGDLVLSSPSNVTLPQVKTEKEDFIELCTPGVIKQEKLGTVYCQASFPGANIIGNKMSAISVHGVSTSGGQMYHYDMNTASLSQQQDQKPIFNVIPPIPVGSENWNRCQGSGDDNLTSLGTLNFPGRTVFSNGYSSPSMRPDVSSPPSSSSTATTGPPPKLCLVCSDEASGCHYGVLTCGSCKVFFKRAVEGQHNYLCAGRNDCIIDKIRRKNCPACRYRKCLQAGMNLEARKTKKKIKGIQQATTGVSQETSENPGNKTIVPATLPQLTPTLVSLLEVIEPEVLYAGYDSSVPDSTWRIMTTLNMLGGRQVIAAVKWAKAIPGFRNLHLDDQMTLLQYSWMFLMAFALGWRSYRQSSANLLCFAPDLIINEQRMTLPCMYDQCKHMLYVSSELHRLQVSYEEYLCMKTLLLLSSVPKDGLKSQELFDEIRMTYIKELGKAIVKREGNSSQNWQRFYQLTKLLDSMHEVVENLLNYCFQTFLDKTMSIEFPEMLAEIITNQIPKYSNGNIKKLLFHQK
Assay: Trans-activation modulation of glucocorticoid receptor (GRAMMER), MMTV-LUC reporter in A549 cells
Type: cell-based
Conditions: for Emax: A549, A549 cells, read-out: Transactivation A549 Cells Grammer Emax (%); for EC50: IP = inflection point, read-out: Transactivation A549 Cells Grammer IP

[1] = Emax relative to the activity obtained with 300 nM dexamethasone

## CC[C@]12Cc3cnn(-c4ccc(F)cc4)c3C=C1CC[C@@]2(O)CCc1nccc(C2CC2)c1C(=O)OC [Example 41, Methyl 4-cyclopropyl-2-{2-[(4aS,5R)-4a-ethyl-1-(4-fluorophenyl)-5-hydroxy-1,4,4a,5,6,7-hexahydrocyclopenta[f]indazol-5-yl]ethyl}pyridine-3-carboxylate]
[1]
  Emax: 28%
A549 cells
  EC50: 138 nM

## CC[C@]12Cc3cnn(-c4ccc(F)cc4)c3C=C1CC[C@@]2(O)CCc1ccccc1S(C)(=O)=O [Example 42, (4aS,5R)-4a-Ethyl-1-(4-fluorophenyl)-5-{2-[2-(methylsulfonyl)phenyl]ethyl}-1,4,4a,5,6,7-hexahydrocyclopenta[f]indazol-5-ol]
[1]
  Emax: 34%
A549 cells
  EC50: 16 nM

## CC[C@]12Cc3cnn(-c4ccc(F)cc4)c3C=C1CC[C@@]2(O)CCc1cc(C)ccn1 [Example 33, (4aS,5R)-4a-Ethyl-1-(4-fluorophenyl)-5-[2-(4-methylpyridin-2-yl)ethyl]-1,4,4a,5,6,7-hexahydrocyclopenta[f]indazol-5-ol]
[1]
  Emax: 27%
A549 cells
  EC50: 72 nM

## CC(C)(CO)NC(=O)c1ccccc1CC[C@]1(O)CCC2=Cc3c(cnn3-c3ccc(F)cc3)C[C@@]21C1CC1 [Example 45, 2-{2-[(4aR,5R)-4a-Cyclopropyl-1-(4-fluorophenyl)-5-hydroxy-1,4,4a,5,6,7-hexahydrocyclopenta[f]indazol-5-yl]ethyl}-N-(1-hydroxy-2-methylpropan-2-yl)benzamide]
[1]
  Emax: 39%
A549 cells
  EC50: 22 nM

## OC(C[C@]1(O)CCC2=Cc3c(cnn3-c3ccc(F)cc3)C[C@@]21C1CC1)c1ccc(F)cn1 (single isomer, unassigned) [Example 79a]
[1]
  Emax: 10%
A549 cells
  EC50: 186 nM

## CC[C@]12Cc3cnn(-c4cccnc4)c3C=C1CC[C@@]2(O)CCc1cccc(F)c1C#N [Example 10, 2-{2-[(4aS,5R)-4a-Ethyl-5-hydroxy-1-(pyridin-3-yl)-1,4,4a,5,6,7-hexahydrocyclopenta[f]indazol-5-yl]ethyl}-6-fluorobenzonitrile]
[1]
  Emax: 20%
A549 cells
  EC50: 116 nM

## CC[C@]12Cc3cnn(-c4ccc(F)cc4)c3C=C1CC[C@@]2(O)CC(O)c1ccc(F)cn1 (single isomer, unassigned) [Example 69b]
A549 cells, Emax relative to the activity obtained with 300 nM dexamethasone
  Transactivation A549 Cells Grammer Emax (%): 26%
A549 cells
  EC50: 113 nM

## NC(=O)c1c(C(F)(F)F)ccnc1CC[C@]1(O)CCC2=Cc3c(cnn3-c3ccc(F)cc3)C[C@@]21C1CC1 [Example 55, 2-{2-[(4aR,5R)-4a-Cyclopropyl-1-(4-fluorophenyl)-5-hydroxy-1,4,4a,5,6,7-hexahydrocyclopenta[f]indaozol-5-yl]ethyl}-4-(trifluoromethyl)pyridine-3-carboxamide]
[1]
  Emax: 38%
A549 cells
  EC50: 7 nM

## CC[C@]12Cc3cnn(-c4ccccc4)c3C=C1CC[C@@]2(O)CC(O)c1cc(C#N)ccn1 (stereo partly drawn) [Example 75, 2-{2-[(4aS,5R)-4a-Ethyl-5-hydroxy-1-phenyl-1,4,4a,5,6,7-hexahydrocyclopenta[f]indazol-5-yl]-1-hydroxyethyl}pyridine-4-carbonitrile]
[1]
  Emax: 10%
A549 cells
  EC50: 106 nM

## O=S(=O)(c1ccccc1CC[C@]1(O)CCC2=Cc3c(cnn3-c3ccc(F)cc3)C[C@@]21C1CC1)C1CC1 [Example 63, (4aR,5R)-4a-Cyclopropyl-5-{2-[2-(cyclopropylsulfonyl)phenyl]ethyl}-1-(4-fluorophenyl)-1,4,4a,5,6,7-hexahydrocyclopenta[f]indazol-5-ol]
[1]
  Emax: 5%
A549 cells
  EC50: 42 nM

## CC[C@]12Cc3cnn(-c4ccc(F)cc4)c3C=C1CC[C@@]2(O)CCc1ncccc1S(=O)(=O)C(C)C [Example 62, (4aS,5R)-4a-Ethyl-1-(4-fluorophenyl)-5-{2-[3-(propan-2-ylsulfonyl)pyridin-2-yl]ethyl}-1,4,4a,5,6,7-hexahydrocyclopenta[f]indazol-5-ol]
[1]
  Emax: 43%
A549 cells
  EC50: 35 nM

## CC[C@]12Cc3cnn(-c4ccc(F)cc4)c3C=C1CC[C@@]2(O)CC1OC(=O)c2ccccc21 (stereo partly drawn) [Example 71, 3-{[(4aS,5R)-4a-Ethyl-1-(4-fluorophenyl)-5-hydroxy-1,4,4a,5,6,7-hexahydrocyclopenta[f]indazol-5-yl]methyl}-2-benzofuran-1(3H)-one]
[1]
  Emax: 30%
A549 cells
  EC50: 78 nM

## CC[C@]12Cc3cnn(-c4ccc(F)cc4)c3C=C1CC[C@@]2(O)CCc1ncccc1C(N)=O [Example 52, 2-{2-[(4aS,5R)-4a-Ethyl-1-(4-fluorophenyl)-5-hydroxy-1,4,4a,5,6,7-hexahydrocyclopenta[f]indazol-5-yl]ethyl}pyridine-3-carboxamide]
[1]
  Emax: 59%
A549 cells
  EC50: 64 nM

## CC[C@]12Cc3cnn(-c4ccc(F)cc4)c3C=C1CC[C@@]2(O)CCc1cc(C(F)(F)F)ccn1 [Example 34, (4aS,5R)-4a-Ethyl-1-(4-fluorophenyl)-5-{2-[4-(trifluoromethyl)pyridin-2-yl]ethyl}-1,4,4a,5,6,7-hexahydrocyclopenta[f]indazol-5-ol]
[1]
  Emax: 24%
A549 cells
  EC50: 91 nM

## CC[C@]12Cc3cnn(-c4ccc(F)cc4)c3C=C1CC[C@@]2(O)CC(O)c1ncccc1Cl (stereo partly drawn) [Example 70, (4aS,5R)-5-[2-(3-Chloropyridin-2-yl)-2-hydroxyethyl]-4a-ethyl-1-(4-fluorophenyl)-1,4,4a,5,6,7-hexahydrocyclopenta[f]indazol-5-ol]
[1]
  Emax: 31%
A549 cells
  EC50: 83 nM

## CCS(=O)(=O)c1ccccc1CC[C@]1(O)CCC2=Cc3c(cnn3-c3ccc(F)cc3)C[C@@]21C1CC1 [Example 59, (4aR,5R)-4a-Cyclopropyl-5-{2-[2-(ethylsulfonyl)phenyl]ethyl}-1-(4-fluorophenyl)-1,4,4a,5,6,7-hexahydrocyclopenta[f]indazol-5-ol]
[1]
  Emax: 7%
A549 cells
  EC50: 35 nM

## O[C@@]1(CCc2cc(C(F)(F)F)ccn2)CCC2=Cc3c(cnn3-c3ccc(F)cc3)C[C@@]21C1CC1 [Example 32, (4aR,5R)-4a-Cyclopropyl-1-(4-fluorophenyl)-5-{2-[4-(trifluoromethyl)pyridin-2-yl]ethyl}-1,4,4a,5,6,7-hexahydrocyclopenta[f]indazol-5-ol]
[1]
  Emax: 11%
A549 cells
  EC50: 65 nM

## CC[C@]12Cc3cnn(-c4ccccc4)c3C=C1CC[C@@]2(O)CC(O)c1ccccn1 (single isomer, unassigned) [Example 67a]
[1]
  Emax: 20%
A549 cells
  EC50: 284 nM

## NC(=O)CNC(=O)c1cccnc1CC[C@]1(O)CCC2=Cc3c(cnn3-c3ccc(F)cc3)C[C@@]21C1CC1 [Example 43, N-(2-Amino-2-oxoethyl)-2-{2-[(4aR,5R)-4a-cyclopropyl-1-(4-fluorophenyl)-5-hydroxy-1,4,4a,5,6,7-hexahydrocyclopenta[f]indazol-5-yl]ethyl}pyridine-3-carboxamide]
[1]
  Emax: 47%
A549 cells
  EC50: 260 nM

## CC[C@]12Cc3cnn(-c4ccc(F)cc4)c3C=C1CC[C@@]2(O)CC(O)c1cncc(F)c1 (stereo partly drawn) [Example 73, (4aS,5R)-4a-Ethyl-1-(4-fluorophenyl)-5-[2-(5-fluoropyridin-3-yl)-2-hydroxyethyl]-1,4,4a,5,6,7-hexahydrocyclopenta[f]indazol-5-ol]
[1]
  Emax: 34%
A549 cells
  EC50: 101 nM

## CC[C@]12Cc3cnn(-c4cccnc4)c3C=C1CC[C@@]2(O)CCc1ccccc1C#N [Example 5, 2-{2-[(4aS,5R)-4a-Ethyl-5-hydroxy-1-(pyridin-3-yl)-1,4,4a,5,6,7-hexahydrocyclopenta[f]indazol-5-yl]ethyl}benzonitrile]
[1]
  Emax: 29%
A549 cells
  EC50: 47 nM

## CC[C@]12Cc3cnn(-c4ccc(F)cc4)c3C=C1CC[C@@]2(O)CCc1ccccc1S(=O)(=O)C(C)C [Example 40, (4aS,5R)-4a-Ethyl-1-(4-fluorophenyl)-5-{2-[2-(propan-2-ylsulfonyl)phenyl]ethyl}-1,4,4a,5,6,7-hexahydrocyclopenta[f]indazol-5-ol]
[1]
  Emax: 36%
A549 cells
  EC50: 101 nM

## NC(=O)[C@H](F)c1c(F)cccc1CC[C@]1(O)CCC2=Cc3c(cnn3-c3ccc(F)cc3)C[C@@]21C1CC1 [Example 57, (2R)-2-(2-{2-[(4aR,5R)-4a-Cyclopropyl-1-(4-fluorophenyl)-5-hydroxy-1,4,4a,5,6,7-hexahydrocyclopenta[f]indazol-5-yl]ethyl}-6-fluorophenyl)-2-fluoroethanamide]
[1]
  Emax: 11%
A549 cells
  EC50: 31 nM

## CC[C@]12Cc3cnn(-c4ccc(F)cc4)c3C=C1CC[C@@]2(O)CCc1ccccn1 [Example 16, (4aS,5R)-4a-Ethyl-1-(4-fluorophenyl)-5-[2-(pyridin-2-yl)ethyl]-1,4,4a,5,6,7-hexahydrocyclopenta[f]indazol-5-ol]
[1]
  Emax: 31%
A549 cells
  EC50: 80 nM
